Experiments:
Assay type in all cases: biochemical
[1] = molecular target: T1, human FLT-3 (Arg571-Ser993) (Homo sapiens, UniProt P36888); assay: FLT-3 kinase assay (HTScan kit, DELFIA); conditions: for inhibition at 1 µM: compound at 1 μM, read-out: FLT-3 1 μM, % of inhibition relative to control; for inhibition at 0.1 µM: compound at 0.1 μM, read-out: FLT-3 0.1 μM, % of inhibition relative to control
T1 construct: human FLT-3 (Arg571-Ser993); GST (N); purchased Cell Signaling Technology; host or cells: baculovirus expression system
T1 sequence (P36888 571-993): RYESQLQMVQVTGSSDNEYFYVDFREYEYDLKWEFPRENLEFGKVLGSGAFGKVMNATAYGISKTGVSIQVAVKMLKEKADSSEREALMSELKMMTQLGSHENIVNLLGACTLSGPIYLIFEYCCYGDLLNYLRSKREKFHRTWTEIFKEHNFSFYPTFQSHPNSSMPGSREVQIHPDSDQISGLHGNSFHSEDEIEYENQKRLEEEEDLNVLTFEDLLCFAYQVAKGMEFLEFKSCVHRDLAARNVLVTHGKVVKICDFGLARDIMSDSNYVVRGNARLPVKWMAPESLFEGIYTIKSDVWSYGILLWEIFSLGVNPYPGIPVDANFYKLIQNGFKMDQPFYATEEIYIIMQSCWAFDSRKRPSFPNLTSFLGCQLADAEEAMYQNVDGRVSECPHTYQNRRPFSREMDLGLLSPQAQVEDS
Method: (§1) Compounds 1-100 were treated for their efficacy in inhibiting activities of FLT-3, c-KIT, KDR/Flk-1, PDGFR-beta, EGFR, and PKC kinases by biochemical DELFIA (Dissociation Enhanced Lanthanide FIA) assays according to the procedure described below. The assays were conducted by, Division of Cell Engineering, Biomedical Engineering Research Laboratories, Industrial Technology Research Institute, Bldg. 53, 195, sec. 4, Chung Hsing Rd. Chutung, Hsinchu, Taiwan 310, R.O.C.
(§2) The FLT-3 assay was conducted following the protocol described in Protocol for HTScan® FLT-3 Kinase Assay Kit (Cell Signaling Technology®). The assay was conducted under the following conditions: FLT-3 source: The GST-kinase fusion protein was produced using a baculovirus expression system with a construct expressing human FLT-3 (Arg571-Ser993) (GenBank accession No. NM_004119) with an amino-terminal GST tag, substrate: 1.5 μM Gastrin Precursor Biotinylated Peptide (with Tyr87 as phosphorylation site), vehicle: 1% DMSO, pre-incubation time/temperature: 5 minutes at room temperature, incubation time/temperature: 30 minutes at room temperature, incubation buffer: 60 mM HEPES pH 7.5, 5 mM MgCl2, 5 mM MnCl2, 3 μM Na3VO4, 1.25 mM DTT, 20 μM ATP, and quantitative method: DELFIA® Assay.

[2] = molecular target: T2, human EGFR (His672-Ala1210) (Homo sapiens, UniProt P00533); assay: EGFR kinase assay (HTScan kit, DELFIA); conditions: compound at 0.1 μM; read-out: EGFR 0.1 μM, % of inhibition relative to control
T2 construct: human EGFR (His672-Ala1210); GST (N); purchased Cell Signaling Technology; host or cells: baculovirus expression system
Method: as §1
as §2, with “EGFR” for “FLT-3”, “EGFR (His672-Ala1210)” for “FLT-3 (Arg571-Ser993)”, “Accession” for “accession”, “NM_005228)” for “NM_004119)”, “This biotinylated peptide contains the residues surrounding Tyr-66 of PTP1B,” for “Gastrin Precursor Biotinylated Peptide (with Tyr87 as phosphorylation site),”

[3] = molecular target: T3, human VEGFR-2 (Val789-Val1356) (Homo sapiens, UniProt P35968); assay: KDR kinase assay (HTScan VEGFR-2 kit, DELFIA); conditions: for inhibition at 0.1 µM: compound at 0.1 μM, read-out: KDR 0.1 μM, % of inhibition relative to control; for inhibition at 1 µM: compound at 1 μM, read-out: KDR 1 μM, % of inhibition relative to control
T3 construct: human VEGFR-2 (Val789-Val1356); GST (N); purchased Cell Signaling Technology; host or cells: baculovirus expression system
Method: as §1
The KDR assay was conducted following the protocol described in Protocol for HTScan® VEGFR-2 Kinase Assay Kit (Cell Signaling Technology®). The assay was conducted under the following conditions: KDR source: The GST-Kinase fusion protein was produced using a baculovirus expression system with a construct expressing human VEGFR-2 (Val789-Val1356) (GenBank Accession No. NM_002253) with an amino-terminal GST tag, substrate: 1.5 μM Gastrin Precursor Biotinylated Peptide (with Tyr87 as phosphorylation site), vehicle: 1% DMSO, pre-incubation time/temperature: 5 minutes at room temperature, incubation time/temperature: 30 minutes at room temperature, incubation buffer: 60 mM HEPES pH 7.5, 5 mM MgCl2, 5 mM MnCl2, 3 μM Na3VO4, 1.25 mM DTT, 20 μM ATP, and quantitative method: DELFIA® Assay.

[4] = molecular target: T4, human c-KIT (Thr544-Val976) (Homo sapiens, UniProt P10721); assay: c-KIT kinase assay (HTScan kit, DELFIA); conditions: for inhibition at 0.1 µM: compound at 0.1 μM, read-out: c-KIT 0.1 μM, % of inhibition relative to control; for inhibition at 1 µM: compound at 1 μM, read-out: c-KIT 1 μM, % of inhibition relative to control
T4 construct: human c-KIT (Thr544-Val976); GST (N); purchased Cell Signaling Technology; host or cells: baculovirus expression system
Method: as §1
as §2, with “c-KIT” for “FLT-3”, “GST-c-KIT” for “GST-kinase”, “c-KIT (Thr544-Val976)” for “FLT-3 (Arg571-Ser993) (GenBank accession No. NM_004119)”, “This biotinylated peptide contains the residues surrounding Tyr-996 of KDR,” for “Gastrin Precursor Biotinylated Peptide (with Tyr87 as phosphorylation site),”

T4 sequence (P10721 544-976): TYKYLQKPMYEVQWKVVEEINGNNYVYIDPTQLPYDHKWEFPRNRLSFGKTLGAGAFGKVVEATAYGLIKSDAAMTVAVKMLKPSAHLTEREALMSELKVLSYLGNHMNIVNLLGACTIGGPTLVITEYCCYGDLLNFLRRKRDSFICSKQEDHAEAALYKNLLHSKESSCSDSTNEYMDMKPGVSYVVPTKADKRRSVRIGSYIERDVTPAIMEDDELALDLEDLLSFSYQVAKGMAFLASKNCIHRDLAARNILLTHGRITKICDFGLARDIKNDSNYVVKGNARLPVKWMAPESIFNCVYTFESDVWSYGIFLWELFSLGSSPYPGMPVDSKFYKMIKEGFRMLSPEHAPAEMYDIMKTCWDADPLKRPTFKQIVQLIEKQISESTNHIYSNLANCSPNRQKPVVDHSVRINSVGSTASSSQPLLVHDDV
T3 sequence (P35968 789-1356): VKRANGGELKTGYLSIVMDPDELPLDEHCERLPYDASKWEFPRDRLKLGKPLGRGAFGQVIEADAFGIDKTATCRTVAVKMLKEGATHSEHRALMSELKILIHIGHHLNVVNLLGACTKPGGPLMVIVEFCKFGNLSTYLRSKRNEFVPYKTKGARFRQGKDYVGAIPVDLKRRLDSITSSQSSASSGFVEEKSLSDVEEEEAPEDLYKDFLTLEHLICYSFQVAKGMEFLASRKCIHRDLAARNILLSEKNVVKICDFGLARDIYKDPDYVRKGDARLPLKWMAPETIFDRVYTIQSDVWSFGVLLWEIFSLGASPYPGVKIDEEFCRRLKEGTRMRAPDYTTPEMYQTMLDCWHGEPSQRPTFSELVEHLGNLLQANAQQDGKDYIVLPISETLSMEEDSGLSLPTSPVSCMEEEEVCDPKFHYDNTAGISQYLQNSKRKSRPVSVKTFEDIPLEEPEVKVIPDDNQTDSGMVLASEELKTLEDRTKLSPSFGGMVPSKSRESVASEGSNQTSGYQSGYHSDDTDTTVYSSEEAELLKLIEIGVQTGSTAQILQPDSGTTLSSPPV
T2 sequence (P00533 672-1210): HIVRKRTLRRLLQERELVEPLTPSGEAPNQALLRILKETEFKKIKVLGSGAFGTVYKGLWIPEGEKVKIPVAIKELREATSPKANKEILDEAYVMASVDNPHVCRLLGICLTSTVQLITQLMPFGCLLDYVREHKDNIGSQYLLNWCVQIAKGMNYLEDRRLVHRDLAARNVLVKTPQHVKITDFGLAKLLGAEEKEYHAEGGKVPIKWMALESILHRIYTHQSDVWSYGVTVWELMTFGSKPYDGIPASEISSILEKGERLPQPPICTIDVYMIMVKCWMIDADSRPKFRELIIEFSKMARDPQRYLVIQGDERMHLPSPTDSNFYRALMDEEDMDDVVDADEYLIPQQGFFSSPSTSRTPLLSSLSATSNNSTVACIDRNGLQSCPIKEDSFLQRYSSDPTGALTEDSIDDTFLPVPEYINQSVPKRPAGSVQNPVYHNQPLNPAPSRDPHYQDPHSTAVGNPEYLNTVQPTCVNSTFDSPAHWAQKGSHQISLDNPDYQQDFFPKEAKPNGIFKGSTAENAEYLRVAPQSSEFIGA

SMILES	inhibition at 1 µM [1]	inhibition at 0.1 µM [2]	inhibition at 0.1 µM [1]	inhibition at 0.1 µM [3]	inhibition at 1 µM [3]	inhibition at 0.1 µM [4]	inhibition at 1 µM [4]	IC50 ([1]; read-out: FLT-3 kinase inhibition (IC50))	IC50 ([4]; read-out: c-KIT kinase inhibition (IC50))
COc1ccc2c(c1)NC(=O)/C2=C\c1ccc2cccccc1-2 [Compound 31, 3-Azulen-1-ylmethylene-6-methoxy-1,3-dihydro-indol-2-one]	14.9%	0.2%							
O=C1Nc2ccc(F)cc2/C1=C\c1ccccc2cccc1-2 [Compound 52, 3-Azulen-4-ylmethylene-5-fluoro-1,3-dihydro-indol-2-one]	44.2%		14.1%	12.6%	9.1%	20.2%	20.2%		
O=C1Nc2cc(Br)ccc2/C1=C/c1ccc2cccccc1-2 [Compound 29, 3-Azulen-1-ylmethylene-6-bromo-1,3-dihydro-indol-2-one]	53.3%			18.5%	48.2%	46.1%	46.1%		
CNS(=O)(=O)c1ccc2c(c1)/C(=C\c1cc(C)c3c(OCCCN(C)C)ccccc1-3)C(=O)N2 [Compound 88, 3-[4-(3-Dimethylamino-propoxy)-3-methyl-azulen-1-ylmethylene]-2-oxo-2,3-dihydro-1H-indole-5-sulfonic acid methylamide]	47.3%		24.2%		16.8%	19.3%	19.3%		
Nc1cc2cccccc-2c1C=C1C(=O)Nc2ccc(F)cc21 [Compound 64, 3-(2-Amino-azulen-1-ylmethylene)-5-fluoro-1,3-dihydro-indol-2-one]	74.9%		68.3%	46.5%	47.8%	34.2%	34.2%		
O=C1Nc2ccc(F)cc2/C1=C/c1c2cccccc-2oc1=O [Compound 62, 5-Fluoro-3-(2-oxo-2H-cyclohepta[b]furan-3-ylmethylene)-1,3-dihydro-indol-2-one]	74.9%		68.3%	21.9%	35.1%	45.6%	45.6%		
CCN(CC)CCCOc1ccccc2c(C=C3C(=O)Nc4ccc(F)cc43)cc(C)c1-2 [Compound 90, 3-[4-(3-Diethylamino-propoxy)-3-methyl-azulen-1-ylmethylene]-5-fluoro-1,3-dihydro-indol-2-one]	85.5%		33.9%		32.8%	83.2%	83.2%	10.1 nM	77.9 nM
CCc1cc(C=C2C(=O)Nc3ccc(F)cc32)c2cccccc1-2 [Compound 80, 3-(3-Ethyl-azulen-1-ylmethylene)-5-fluoro-1,3-dihydro-indol-2-one]	19.7%		17.6%	30.2%	32%	29.6%	29.6%		
Cc1cc(C=C2C(=O)Nc3ccccc32)c2ccccc(OCCCN(C)C)c1-2 [Compound 98, 3-[4-(3-Dimethylamino-propoxy)-3-methyl-azulen-1-ylmethylene]-1,3-dihydro-indol-2-one]	85.4%		46.1%	38.6%	80.3%	60.4%	60.4%		

Continued, values first:

inhibition at 1 µM [1]	inhibition at 0.1 µM [2]	inhibition at 0.1 µM [1]	inhibition at 0.1 µM [3]	inhibition at 1 µM [3]	inhibition at 0.1 µM [4]	inhibition at 1 µM [4]	IC50 ([1]; read-out: FLT-3 kinase inhibition (IC50))	IC50 ([4]; read-out: c-KIT kinase inhibition (IC50))	SMILES
97.2%		68.9%	29.3%	89.8%	58%	58%			Cc1cc(C=C2C(=O)Nc3ccc(F)cc32)c2ccccc(OCCCN3CCN(C)CC3)c1-2 [Compound 96, 5-Fluoro-3-{3-methyl-4-[3-(4-methyl-piperazin-1-yl)-propoxy]-azulen-1-ylmethylene}-1,3-dihydro-indol-2-one]
7.6%			33.8%	22.1%	0.6%	0.6%			O=C1Nc2ccccc2/C1=C\c1ccc2cccccc1-2 [Compound 19, 3-Azulen-1-ylmethylene-1,3-dihydro-indol-2-one]
14.4%		6.5%	35.8%	52.4%	47.6%	47.6%			Cc1cc(C=C2C(=O)Nc3cc(C(F)(F)F)ccc32)c2ccccc(OCCCN(C)C)c1-2 [Compound 94, 3-[4-(3-Dimethylamino-propoxy)-3-methyl-azulen-1-ylmethylene]-6-trifluoromethyl-1,3-dihydro-indol-2-one]
52.4%		15.2%	1.1%	9.4%	56.5%	56.5%			Cc1cc(C=C2C(=O)Nc3cc(F)ccc32)c2ccccc(OCCCN(C)C)c1-2 [Compound 91, 3-[4-(3-Dimethylamino-propoxy)-3-methyl-azulen-1-ylmethylene]-6-fluoro-1,3-dihydro-indol-2-one]
43.9%		16.5%	12.1%	23.8%	18%	18%			CN(C)Cc1cc(/C=C2/C(=O)Nc3ccccc32)c2cccccc1-2 [Compound 58, 3-(3-Dimethylaminomethyl-azulen-1-ylmethylene)-1,3-dihydro-indol-2-one]
52.8%		52.6%	55.6%	40.3%	28.3%	28.3%			O=C1Nc2ccc(F)cc2/C1=C/c1cc(F)c2cccccc1-2 [Compound 60, 5-Fluoro-3-(3-fluoro-azulen-1-ylmethylene)-1,3-dihydro-indol-2-one]

From patent publication US7714146B2, “Azulene-oxindole compounds as multiple-kinase inhibitors and useful as anticancer agents” (Industrial Technology Research Institute, priority 2006, dated 2010)
